Results published in ChEMBL document CHEMBL3352603, “Synthesis and preliminary investigations into novel 1,2,3-triazole-derived androgen receptor antagonists inspired by bicalutamide” (Bioorg Med Chem Lett, 2014).

Tests used:
[1] = Growth inhibition of human PC3 cells; format: functional, cell-based; settings: PC-3
LNCaP = experiment: Growth inhibition of human LNCAP cells; format: functional, cell-based

| SMILES | IC50 [1] | IC50 (LNCaP) |
| --- | --- | --- |
| CC(O)(CS(=O)(=O)c1ccc(F)cc1)c1cn(-c2ccc(C#N)c(C(F)(F)F)c2)nn1 (racemic) | > 300 µM | 45 µM |
| CC(O)(CS(=O)(=O)c1ccc(F)cc1)c1cn(-c2ccc([N+](=O)[O-])c(C(F)(F)F)c2)nn1 (racemic) | > 300 µM | 36 µM |
| CCOC(=O)c1ccc(-n2cc(C(C)(O)CS(=O)(=O)c3ccc(F)cc3)nn2)cc1 (racemic) | > 300 µM | > 300 µM |
| CC(O)(CS(=O)(=O)c1ccc(F)cc1)c1cn(-c2ccc(C(=O)O)cc2)nn1 (racemic) | > 300 µM | > 300 µM |
| CC(O)(CS(=O)(=O)c1ccccc1)c1cn(-c2ccc(C#N)c(C(F)(F)F)c2)nn1 (racemic) | 114 µM | 151 µM |
| CC(O)(CS(=O)(=O)c1ccccc1)c1cn(-c2ccc([N+](=O)[O-])c(C(F)(F)F)c2)nn1 (racemic) | 29 µM | 34 µM |
| CC(O)(CS(=O)(=O)c1ccc(F)cc1)C(=O)Nc1ccc(C#N)c(C(F)(F)F)c1 (centres undefined) [BICALUTAMIDE] | 58 µM | 30 µM |
